Results as given in ChEMBL document CHEMBL3585308, “Discovery and Modification of in Vivo Active Nrf2 Activators with 1,2,4-Oxadiazole Core: Hits Identification and Structure-Activity Relationship Study” (J Med Chem, 2015).
Values after ≈ are worked out from the molar mass of the structure shown.

Tests used:
[1] = biological target: T1, Nuclear factor erythroid 2-related factor 2 (Homo sapiens) (UniProt Q16236); experiment: Activation of Nrf2 in human HepG2-ARE-C8 cells assessed as upregulation of ARE level at 0.2 uM after 12 hrs by luciferase reporter gene assay relative to control; assay type: cell-based
T1 sequence (whole entry): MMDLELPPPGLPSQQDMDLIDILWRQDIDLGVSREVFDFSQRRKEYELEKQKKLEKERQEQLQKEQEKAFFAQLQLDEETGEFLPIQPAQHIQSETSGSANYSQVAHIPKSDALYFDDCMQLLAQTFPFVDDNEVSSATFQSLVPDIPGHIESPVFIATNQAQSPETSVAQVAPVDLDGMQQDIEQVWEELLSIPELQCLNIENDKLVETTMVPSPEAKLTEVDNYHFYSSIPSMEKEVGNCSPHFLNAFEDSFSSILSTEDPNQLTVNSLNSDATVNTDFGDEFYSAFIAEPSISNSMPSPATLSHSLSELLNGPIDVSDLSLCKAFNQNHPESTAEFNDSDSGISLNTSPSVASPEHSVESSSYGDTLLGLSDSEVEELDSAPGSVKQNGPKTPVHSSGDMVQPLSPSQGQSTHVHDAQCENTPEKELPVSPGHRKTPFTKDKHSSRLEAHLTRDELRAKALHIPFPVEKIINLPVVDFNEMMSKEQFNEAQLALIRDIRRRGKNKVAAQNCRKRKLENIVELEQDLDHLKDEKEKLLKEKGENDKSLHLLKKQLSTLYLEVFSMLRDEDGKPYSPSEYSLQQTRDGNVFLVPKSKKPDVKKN

[2] = biological target: T1, Nuclear factor erythroid 2-related factor 2 (Homo sapiens); experiment: Activation of Nrf2 in human HepG2-ARE-C8 cells assessed as upregulation of ARE level at 80 uM after 12 hrs by luciferase reporter gene assay relative to control; assay type: cell-based
[3] = Permeability of the compound at pH 7.4 by PAMPA; assay type: physicochemical; settings: read-out: permeability
[4] = biological target: T1, Nuclear factor erythroid 2-related factor 2 (Homo sapiens); experiment: Activation of Nrf2 in human HepG2-ARE-C8 cells assessed as upregulation of ARE level at 160 uM after 12 hrs by luciferase reporter gene assay relative to control; assay type: cell-based
[5] = biological target: T1, Nuclear factor erythroid 2-related factor 2 (Homo sapiens); experiment: Activation of Nrf2 in human HepG2-ARE-C8 cells assessed as upregulation of ARE level at 40 uM after 12 hrs by luciferase reporter gene assay relative to control; assay type: cell-based
[6] = biological target: T1, Nuclear factor erythroid 2-related factor 2 (Homo sapiens); experiment: Activation of Nrf2 in human HepG2-ARE-C8 cells assessed as upregulation of ARE level at 20 uM after 12 hrs by luciferase reporter gene assay relative to control; assay type: cell-based
[7] = biological target: T1, Nuclear factor erythroid 2-related factor 2 (Homo sapiens); experiment: Activation of Nrf2 in human HepG2-ARE-C8 cells assessed as upregulation of ARE level at 0.02 uM after 12 hrs by luciferase reporter gene assay relative to control; assay type: cell-based
[8] = biological target: T1, Nuclear factor erythroid 2-related factor 2 (Homo sapiens); experiment: Activation of Nrf2 in human HepG2-ARE-C8 cells assessed as upregulation of ARE level at 2 uM after 12 hrs by luciferase reporter gene assay relative to control; assay type: cell-based
[9] = Intrinsic aqueous solubility of the compound by potentiometric titration method; assay type: physicochemical; settings: read-out: Intrinsic_solubility
[10] = Dissociation constant, pKa of the compound by potentiometric titration method; assay type: physicochemical
[11] = Lipophilicity, log D of the compound at pH 7.4 by potentiometric titration method; assay type: physicochemical; settings: buffer
HCT-116 [12] = experiment: Cytotoxicity against human HCT116 cells assessed as reduction of cell proliferation at 80 uM after 24 hrs by MTT assay; assay type: cell-based; settings: hct-116, 24 h
HCT-116 [13] = experiment: Cytotoxicity against human HCT116 cells assessed as effect on cell proliferation at 5 to 80 uM after 24 hrs by MTT assay; assay type: cell-based; settings: hct-116, 24 h
[14] = Chemical stability assessed as compound degradation after 2 weeks; assay type: physicochemical; settings: 336 h

fold change (FC) [1] | fold change (FC) [2] | Papp [3] [×10⁻⁶ cm/s] | fold change (FC) [4] | fold change (FC) [5] | fold change (FC) [6] | fold change (FC) [7] | fold change (FC) [8] | solubility [9] [µM] | pKa [10] | logD [11] | Stability [14] | Structure (SMILES) | Activity (HCT-116 [12]) | Activity (HCT-116 [13])
2.79 | 14.1 | 10.3 | 14.2 | 18.5 | 15.5 | 2.03 | 7.25 | 49.5 (≈ 14.7 µg/mL) | 3.77 | 3.71 | – | Clc1ccc(-c2nc(-c3ccc4nc[nH]c4c3)no2)cc1 | Non-toxic | –
2.36 | 2.75 | 11.2 | 2.49 | 3.44 | 13.4 | 1.31 | 12.7 | 35.4 (≈ 12.1 µg/mL) | 3.25 | 3.54 | – | Brc1ccc(-c2nc(-c3ccc4nc[nH]c4c3)no2)cc1 | Non-toxic | –
1.83 | 5.48 | – | 8.36 | 5.96 | 3.88 | 1.46 | 3.17 | – | – | – | – | Cn1nnc2ccc(-c3noc(-c4ccc(F)cc4)n3)cc21 | – | Non-toxic
4.72 | 3.19 | 5.26 | 4.46 | 23.7 | 21.4 | 1.49 | 14.2 | 12.3 (≈ 3.23 µg/mL) | 3.69 | 3.66 | – | c1ccc(-c2nc(-c3ccc4nc[nH]c4c3)no2)cc1 | Non-toxic | –
1.23 | 13.4 | 8.64 | 16.2 | 7.57 | 6.72 | 1.42 | 3.47 | 2.5 (≈ 0.781 µg/mL) | 4.22 | 5.56 | – | c1ccc2cc(-c3nc(-c4ccc5nc[nH]c5c4)no3)ccc2c1 | Non-toxic | –
2.28 | 17.9 | 4.78 | 3.73 | 24.2 | 19.1 | 1.23 | 9.01 | 14 (≈ 4.62 µg/mL) | 4 | 4.01 | – | FC(F)(F)c1ccccc1-c1nc(-c2ccc3nc[nH]c3c2)no1 | Non-toxic | –
– | – | 117 | – | – | – | – | – | – | – | – | – | CC(C)NCC(O)COc1cccc2ccccc12 (configuration not stated) [PROPRANOLOL] | – | –
1.12 | 7.67 | – | 11.7 | 7.34 | 5.65 | 1.18 | 4.48 | – | – | – | – | Cn1nnc2cc(-c3noc(-c4ccccc4)n3)ccc21 | – | Non-toxic
3.76 | 42.6 | – | 38.4 | 53.6 | 36.6 | 1.73 | 12.1 | – | – | – | Unstable | O=[N+]([O-])c1ccccc1-c1nc(-c2ccc3nc[nH]c3c2)no1 | Non-toxic | –
2.02 | 30.6 | – | 38.3 | 36.7 | 15.6 | 1.64 | 6.59 | – | – | – | Unstable | O=[N+]([O-])c1ccc(-c2nc(-c3ccc4nc[nH]c4c3)no2)cc1 | Non-toxic | –
2.85 | 6.56 | – | 1.13 | 21.6 | 17.7 | 1.35 | 6.91 | – | – | – | – | FC(F)(F)c1ccc(-c2nc(-c3ccc4nc[nH]c4c3)no2)cc1 | Non-toxic | –
1.54 | 1.34 | – | 1.17 | 2.75 | 2.67 | 1.72 | 1.53 | – | – | – | – | Oc1ccccc1-c1nc(-c2ccc3nc[nH]c3c2)no1 | Non-toxic | –
– | – | 1.93 | – | – | – | – | – | – | – | – | – | CC(C(=O)O)c1cccc(C(=O)c2ccccc2)c1 (configuration not stated) [KETOPROFEN] | – | –
